Laboratory results published in paper PMC13576449, “Small-Molecule Activators of PRMT1: Discovery, SAR Analyses, and Proapoptotic Effects in Pancreatic Cancer Cells” (Journal of Medicinal Chemistry, 2026).

Experiments:
ADMA in PANC-1 cells = test: Western blot of global ADMA levels in PANC-1 cells; assay type: cell-based, human; details: PANC-1, 72 h, 10 and 20 μM (TR-033 2.5 and 5 μM), vs DMSO
Method: As negative control (Ctrl (−)), PRMT1 enzymes and [^14C-methyl]-SAM were incubated without substrates. Subsequently, samples were separated by SDS-PAGE, blotted, and analyzed by autoradiography. Substrates (H2A, H4 or GST-GAR) and molecular weights (kDa) of the protein marker are indicated. Black lines designate composite images, assembled from the same blots and exposure times. The methylation signals of the substrates were densitometrically quantified, and expressed relative to the DMSO-treated control, as indicated by the numbers below the autoradiographs. Representative results are depicted, with quantification graphs (below the autoradiographs in A and B) summarizing biological replicates. […] Subsequently, GST-GAR was immobilized on glutathione-beads and PRMT1 activity was measured by quantifying the incorporation of ^14C-methyl groups (in cpm) using liquid scintillation counting. […] Cell viability was quantified using the CellTiter-Glo assay. […] Subsequently, whole-cell extracts were prepared and analyzed by Western blot using antibodies against ADMA, ACTIN (ACT), and VINCULIN (VINC), of which the latter two stainings served as loading controls. […] All the ADMA signals per lane were densitometrically quantified, normalized to the signal of the respective loading control and expressed relative to the DMSO-treated control, as indicated by the numbers below the immunostainings. […]

FLAG-tagged PRMT3 = target: T1, FLAG-tagged PRMT3 (Homo sapiens, UniProt O60678); test: Fluorescence-based in vitro PRMT assay (F-PRMT assay), PRMT3; assay type: biochemical; details: for Experimental result (PRMT3): vs solvent control = 100%
T1 construct: The complete ORFs of human PRMT3 and PRMT6 were inserted; made in house; host or cells: Sf9 insect cells (baculovirus)
In short: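 Baculovirus/Sf9-expressed FLAG-PRMTs (human PRMT3, PRMT6; mouse PRMT4), anti-FLAG purified and used bead-bound, methylated Bz-Arg-AMC with SAM for 2 h at 37 °C, 1,000 rpm. Technical triplicates; no-SAM negative controls.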

T1 sequence (O60678 whole entry): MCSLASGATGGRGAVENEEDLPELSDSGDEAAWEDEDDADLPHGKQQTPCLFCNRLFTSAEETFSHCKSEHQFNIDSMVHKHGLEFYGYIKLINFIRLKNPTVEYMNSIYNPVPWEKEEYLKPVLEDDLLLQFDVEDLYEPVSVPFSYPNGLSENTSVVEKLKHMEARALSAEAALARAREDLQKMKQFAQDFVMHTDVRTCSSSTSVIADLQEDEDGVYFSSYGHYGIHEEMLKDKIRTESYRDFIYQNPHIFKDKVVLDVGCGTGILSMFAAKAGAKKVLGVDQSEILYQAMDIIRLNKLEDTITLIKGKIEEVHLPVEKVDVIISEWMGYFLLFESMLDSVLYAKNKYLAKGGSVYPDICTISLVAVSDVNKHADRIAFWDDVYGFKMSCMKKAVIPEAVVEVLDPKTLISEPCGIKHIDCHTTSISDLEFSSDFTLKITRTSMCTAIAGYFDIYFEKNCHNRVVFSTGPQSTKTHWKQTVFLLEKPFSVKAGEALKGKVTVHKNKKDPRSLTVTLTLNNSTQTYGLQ

Molecule | global arginine methylation (ADMA) in cells (ADMA in PANC-1 cells) | effect on PRMT3 activity (in words) (FLAG-tagged PRMT3; 100 μM compound) | Experimental result (PRMT3) (FLAG-tagged PRMT3; Table 1, 100 μM compound, 2 μM PRMT, n = 3, racemates used) | Experimental result (PRMT3) (FLAG-tagged PRMT3; Table S3, 100 µM compound, n≥3)
CN(C)Cc1cccc(CN/C=C2\C(=O)NC(=O)c3ccccc32)c1.Cl [TR-07, (Z)-1-[3-({[(1,3-Dioxo-2,3-dihydroisoquinolin-4(1H)-lidene)methyl]amino}methyl)phenyl]-N,N-dimethylmethanaminium chloride] | concentration-dependent increase in global arginine methylation | neither positively nor negatively influencing | PRMT3 n.e. (Compounds, which did not significantly affect the catalytic activity (less than ±6% change or not significant p-value), are marked with [drawing 8] (no effect)) | n.e. (did not significantly affect the catalytic activity (less than ±6% change or not significant p-value), are marked with n.e. (no effect))
CN(C)Cc1cccc(-c2ccc3[nH]c(=O)c4ccccc4c3c2)c1 [TR-033, 2-{3-[(Dimethylamino)methyl]phenyl}phenanthridin-6(5H)-One] | did not produce consistent effects | – | – | –
(Z)-2-(2-{[(1,3-Dioxo-2,3-dihydroisoquinolin-4(1H)-ylidene)methyl]amino}phenyl)-N,N-dimethylethan-1-aminium chloride [ICTR-059] | – | concomitant PRMT3 activation | – | –
